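Grown in 96-well plates, cells were treated for 48 hours with each compound at five concentrations. Insufficient inhibition: endpoint recorded as highest concentration tested. Abbreviation: GI50, concentration required for 50% inhibition of growth.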 Active and inactive are the calls of the source. Rule as the data show it: active = GI50 up to about 1.1 µM and inactive = higher.
Experiments:
Assay in all cases: inhibition of tumour cell growth, NCI panel, 48 h
[1] = system: BT-549
[2] = system: COLO 205
[3] = system: RXF 393
[4] = system: HCT-116
[5] = system: TK-10
[6] = system: SF-268
[7] = system: NCI-H522
[8] = system: SNB-75
[9] = system: CCRF-CEM
[10] = system: T47D
[11] = system: A549
[12] = system: M14
[13] = system: NCI-H23
[14] = system: A498
[15] = system: OVCAR-8
[16] = system: HT-29
[17] = system: HOP-92
[18] = system: K562
[19] = system: SR

Structure (SMILES) | GI50 [1] | GI50 [2] | GI50 [3] | GI50 [4] | GI50 [5] | GI50 [6] | GI50 [7] | GI50 [8] | GI50 [9] | GI50 [10] | GI50 [11] | GI50 [12] | GI50 [13] | GI50 [14] | GI50 [15] | GI50 [16] | GI50 [17] | GI50 [18] | GI50 [19]
CC(C)=CC(C)C(C(O)CCC1(c2ccoc2)OCCO1)S(=O)(=O)c1ccccc1 (stereo not drawn) | > 100 µM (inactive) | > 100 µM (inactive) | > 100 µM (inactive) | > 100 µM (inactive) | > 100 µM (inactive) | > 100 µM (inactive) | > 100 µM (inactive) | > 100 µM (inactive) | > 100 µM (inactive) | > 100 µM (inactive) | > 100 µM (inactive) | > 100 µM (inactive) | > 100 µM (inactive) | > 100 µM (inactive) | > 100 µM (inactive) |  |  |  | 
CC12CCC(C(=O)O1)C(C)(C)O2 (stereo not drawn) | > 100 µM (inactive) |  | > 100 µM (inactive) | > 100 µM (inactive) | > 100 µM (inactive) | > 100 µM (inactive) | > 100 µM (inactive) | > 100 µM (inactive) | > 100 µM (inactive) |  | > 100 µM (inactive) | > 100 µM (inactive) | > 100 µM (inactive) | > 100 µM (inactive) | > 100 µM (inactive) | > 100 µM (inactive) | > 100 µM (inactive) | > 100 µM (inactive) | > 100 µM (inactive)
Cc1cc2c(cc1Cl)SC(NNC1=NCCN1)=NS2(=O)=O | > 10 µM (inactive) | > 10 µM (inactive) | > 10 µM (inactive) | > 10 µM (inactive) | > 10 µM (inactive) | > 10 µM (inactive) | > 10 µM (inactive) | > 10 µM (inactive) | > 10 µM (inactive) | > 10 µM (inactive) | > 10 µM (inactive) | > 10 µM (inactive) | > 10 µM (inactive) | > 10 µM (inactive) | > 10 µM (inactive) | > 10 µM (inactive) |  | > 10 µM (inactive) | 
CCCCCCc1nn2c(-c3ccc(C)cc3)nnc2s1 | > 100 µM (inactive) | > 100 µM (inactive) | 77.8 µM (inactive) | 49.2 µM (inactive) | > 100 µM (inactive) | > 100 µM (inactive) | 67.3 µM (inactive) | > 100 µM (inactive) |  | 58.7 µM (inactive) | > 100 µM (inactive) | > 100 µM (inactive) | > 100 µM (inactive) | > 100 µM (inactive) | 68.9 µM (inactive) | > 100 µM (inactive) |  | > 100 µM (inactive) | 
C=C(C)CC1(O[Si](C)(C)C)C(=O)C(OCC)=C1OCC (stereo not drawn) | > 100 µM (inactive) | > 100 µM (inactive) |  | > 100 µM (inactive) | > 100 µM (inactive) | > 100 µM (inactive) | > 100 µM (inactive) | > 100 µM (inactive) | > 100 µM (inactive) | > 100 µM (inactive) | > 100 µM (inactive) | > 100 µM (inactive) | > 100 µM (inactive) | > 100 µM (inactive) | > 100 µM (inactive) | > 100 µM (inactive) | > 100 µM (inactive) |  | 
Oc1ccc2ccccc2c1OCc1nnc(CCCCCCCCc2nnc(COc3c(O)ccc4ccccc34)n2Nc2ccccc2)n1Nc1ccccc1 | 6.19 µM (inactive) | 0.399 µM (active) | 28.5 µM (inactive) | 10.9 µM (inactive) | 22.6 µM (inactive) | 6.17 µM (inactive) | 11.1 µM (inactive) | 38.4 µM (inactive) |  | 25.9 µM (inactive) | 10.5 µM (inactive) | 2.56 µM (inactive) | 9.29 µM (inactive) | 40.7 µM (inactive) | 20.9 µM (inactive) | 10.7 µM (inactive) | 17.2 µM (inactive) | 0.0407 µM (active) | 
